Measurements published in patent US20120070508A1, “Methods, Compositions, and Devices for Managing Chlorine Dioxide Release” (DHARMA IP, LLC, priority 2010, published 2012).

Experiment: Enhanced solubility of beta-cyclodextrin in water containing ClO2 (slurry test)
Conditions: 100 g slurry, 5% (w/w) in 8000 ppm ClO2 vs ultrapure water, 200 rpm, 3 days

OC[C@H]1O[C@@H]2O[C@H]3[C@H](O)[C@@H](O)[C@@H](O[C@H]4[C@H](O)[C@@H](O)[C@@H](O[C@H]5[C@H](O)[C@@H](O)[C@@H](O[C@H]6[C@H](O)[C@@H](O)[C@@H](O[C@H]7[C@H](O)[C@@H](O)[C@@H](O[C@H]8[C@H](O)[C@@H](O)[C@@H](O[C@H]1[C@H](O)[C@H]2O)O[C@@H]8CO)O[C@@H]7CO)O[C@@H]6CO)O[C@@H]5CO)O[C@@H]4CO)O[C@@H]3CO [beta-cyclodextrin]
weight of undissolved dried beta-cyclodextrin, less than control slurry: 0.32 g
